Results taken from patent US20130245026A1, “TREATMENT OF CANCER WITH TOR KINASE INHIBITORS” (SIGNAL PHARMACEUTICALS, LLC, priority 2012, published 2013).
Like-named read-outs stand apart in the source and are kept apart here.

What was measured:
[1] = test system: patient-derived tumor cells; assay: Apoptosis assay using patient tumor cells (CellEvent, caspase 3 and 7); format: cell-based, human; details: concentration between 0.1-10 μM; 48 hours of treatment
Procedure: (§1) Proliferation and Apoptosis Assay Using Patient Tumor Cells.
(§2) Cryopreserved patient-derived tumor cells were resurrected from liquid nitrogen storage and conditioned on coated plates prior to drug treatment. […] The mitotic activity of the cells was assessed by measuring ethynyl […] (EdU) incorporation during S-phase. The untreated control wells received medium containing DMSO (vehicle used to dissolve each compound and EdU). […] The apoptotic activity of the cells was assessed by measuring CellEvent incorporation due to caspase 3 and 7 activation. The untreated control wells received medium containing DMSO (vehicle used to dissolve each compound and CellEvent). After conditioning, cell lines were plated on a 3D matrix in two 96-well plates. The cells were allowed to settle and form spheroid structures for 48 hours. Then, 48 hours after plating, the cells were treated with compound.
The cells were treated only on Day 1. After 48 hours of compound treatment, CellEvent was added to measure the apoptotic activity in cells. […] For the Apoptosis assay, images were analyzed using a Multi Wavelength Scoring Algorithm (Molecular Devices, Sunnyvale, Calif.) to quantify mean fluorescent intensities (MFI) of each well for activated caspase 3 and 7 using CellEvent. The CellEvent mean fluorescence intensities (MFI) of treated wells and untreated controls were averaged and plotted.

[2] = test system: patient-derived tumor cells; assay: Proliferation assay using patient tumor cells (EdU incorporation, 3D matrix); format: cell-based; details: Homo sapiens
Procedure: as §1, §2
The cells were treated only on Day 1. For the last 48 hours of the treatment, EdU was added to measure the cell proliferation. At the end of the treatment, plates were fixed, permeabilized and stained for EdU uptake (proliferation marker) and DAPI (nuclear marker). Plates were imaged at 4× magnification using ImageXpress Micro (Molecular Devices, Sunnyvale, Calif.). Seven z-stacks at 5 sites per well were captured and deconvoluted to create the images for analysis. For the proliferation assay, images were analyzed using a Multi Wave Scoring Algorithm (Molecular Devices, Sunnyvale, Calif.) to quantify mean fluorescent intensities (MFI) of each well for EdU. The EdU MFI's for the treated wells were normalized to those of the untreated wells to generate the compound response curves.

SCC-9 [3] = assay: Growth inhibition assay for head and neck (HN) cancer cell lines; format: cell-based; details: Homo sapiens, 72 hours, Cell Titer-Glo
Procedure: (§3) Growth Inhibition Assay for Head and Neck (HN) Cancer Cell Lines.
(§4) A serial titration was performed to produce a working concentration range of 1.5 μM to 10 mM. Aliquots to produce final concentrations of 1.5 nM to 10 μM were spotted via an acoustic dispenser (EDC ATS-100) into an empty 384-well plate. […] The DMSO concentration was kept constant for a final assay concentration of 0.1% DMSO. Plates were replicated for use with different cell lines and testing periods. After compound plate replication, all plates were sealed (Agilent ThermoLoc) and stored at −20° C. for up to 1 month. […] When ready for testing, plates were removed from the freezer, thawed, and unsealed just prior to the addition of the test cells. Prior to testing, cells were grown and expanded in culture flasks to provide sufficient amounts of starting material. Cells were then diluted to the appropriate densities and added directly to the compound-spotted 384-well plates. Cells were allowed to grow for 72 hours at 37° C./5% CO2. At the time when compound was added (t0), initial cell number was assessed via a viability assay (Cell Titer-Glo) by quantifying the level of luminescence generated by ATP present in viable cells. After 72 hours, cell viability of compound-treated cells was assessed via Cell Titer-Glo and luminescence measurement. […] A control cell line (the lung tumor cell line, A549) was included in each of the assays. The compound response against this control cell line was monitored closely to enable comparison of the data generated through the assay period. All data were normalized and presented as a percentage of the DMSO-treated cells. Results were then expressed as a GI50 value. The GI50 value corrects for the cell count at time zero.

Detroit562 [4] = assay: as above; format: cell-based; details: Homo sapiens, Detroit 562, 72 hours, Cell Titer-Glo
Procedure: as §3, §4

CAL-33 [5] = assay: as above; format: cell-based; details: Homo sapiens, 72 hours, Cell Titer-Glo
Procedure: as §3, §4

SCC-15 [6] = assay: as above; format: cell-based; details: Homo sapiens, 72 hours, Cell Titer-Glo
Procedure: as §3, §4

RPMI-2650 [7] = assay: as above; format: cell-based; details: Homo sapiens, 72 hours, Cell Titer-Glo
Procedure: as §3, §4

CAL-27 [8] = assay: as above; format: cell-based; details: Homo sapiens, 72 hours, Cell Titer-Glo
Procedure: as §3, §4

SCC-25 [9] = assay: as above; format: cell-based; details: Homo sapiens, 72 hours, Cell Titer-Glo
Procedure: as §3, §4

HN [10] = assay: as above; format: cell-based; details: 72 h
Procedure: as §3, §4

A253 [11] = assay: as above; format: cell-based; details: Homo sapiens, 72 hours, Cell Titer-Glo
Procedure: as §3, §4

BHY [12] = assay: as above; format: cell-based; details: 72 hours, Cell Titer-Glo
Procedure: as §3, §4

FADU [13] = assay: as above; format: cell-based; details: Homo sapiens, 72 hours, Cell Titer-Glo
Procedure: as §3, §4

SCC-9 [14] = assay: Apoptosis assay for HN cancer cell lines (Caspase 3/7-Glo); format: cell-based; details: 24 hours
Procedure: (§5) Apoptosis Assay for HN Cancer Cell Lines.
(§6) Prior to testing, cells were grown and expanded in culture flasks to provide sufficient amounts of starting material. Cells were then diluted to their desired densities and added directly to compound-spotted 384-well plates. Cells were allowed to grow for 24 hours in 5% CO2 at 37° C. The apoptotic response was assessed by quantifying the activities of caspase 3 and caspase 7 (Caspase 3/7-Glo) in treated cells and control cells at the 24-hour time point. All data was normalized and represented as a value relative to the DMSO-treated cells. Results were then expressed as CalX, which is the minimum compound concentration required to double the levels of caspase 3/7 relative to those of the DMSO-treated cells during their treatment period.

Detroit562 [15] = assay: as above; format: cell-based; details: 24 hours
Procedure: as §5, §6

CAL-33 [16] = assay: as above; format: cell-based; details: 24 hours
Procedure: as §5, §6

SCC-15 [17] = assay: as above; format: cell-based; details: 24 hours
Procedure: as §5, §6

RPMI-2650 [18] = assay: as above; format: cell-based; details: 24 hours
Procedure: as §5, §6

CAL-27 [19] = assay: as above; format: cell-based; details: 24 hours
Procedure: as §5, §6

SCC-25 [20] = assay: as above; format: cell-based; details: 24 hours
Procedure: as §5, §6

HN [21] = assay: as above; format: cell-based; details: minimum concentration to double caspase 3/7 vs DMSO, 24 hours
Procedure: as §5, §6

A253 [22] = assay: as above; format: cell-based; details: 24 hours
Procedure: as §5, §6

BHY [23] = assay: as above; format: cell-based; details: 24 hours
Procedure: as §5, §6

FADU [24] = assay: as above; format: cell-based; details: 24 hours
Procedure: as §5, §6

[25] = corrected for cell count at time zero
[26] = Table 1, minimum concentration to double caspase 3/7 vs DMSO
[27] = minimum concentration to double caspase 3/7 vs DMSO

Q: Which results are given for CCN1C(=O)CNc2ncc(-c3ccc(-c4nc[nH]n4)nc3C)nc21 [Compound 1, 1-ethyl-7-(2-methyl-6-(1H-1,2,4-triazol-3-yl)pyridin-3-yl)-3,4-dihydropyrazino[2,3-b]pyrazin-2(1H)-one]?
A: apoptosis (activated caspase 3 and 7, CellEvent MFI) [1]: Apoptosis was observed in some patient-derived samples; IC50 ([2]; Unknown, Left palate, read-out: Prolif IC50): 547 nM; IC50 ([2]; person, H&N carcinoma, Left superior segment, read-out: Prolif IC50): 260 nM; IC50 ([2]; person, H&N carcinoma, Lung, read-out: Prolif IC50): 342 nM; IC50 ([2]; person, Larynx carcinoma, Left side neck, read-out: Prolif IC50): 103 nM; IC50 ([2]; person, Squamous carcinoma H&N, Neck, read-out: Prolif IC50): 1720 nM; IC50 ([2]; person, Squamous carcinoma H&N, Right lower lobe lung, read-out: Prolif IC50): 139 nM; IC50 ([2]; person, Squamous carcinoma H&N, Right nasal, read-out: Prolif IC50): 240 nM; IC50 ([2]; person, Squamous cell H&N, Cervical lymph node, read-out: Prolif IC50): 146 nM; IC50 ([2]; person, Squamous cell H&N, Left chest wall, read-out: Prolif IC50): 157 nM; IC50 ([2]; person, Squamous cell H&N, Left neck lymph node, read-out: Prolif IC50): 499 nM; IC50 ([2]; person, Squamous cell H&N, Left neck, cervical, read-out: Prolif IC50): 429 nM; IC50 ([2]; person, Squamous cell H&N, Left tonsil, read-out: Prolif IC50): 162 nM; IC50 ([2]; person, Squamous cell H&N, Mass, left latisimal muscle, read-out: Prolif IC50): 115 nM; IC50 ([2]; person, Squamous cell H&N, Mass, skull base excision, read-out: Prolif IC50): 157 nM; IC50 ([2]; person, Squamous cell H&N, Pleural fluid, read-out: Prolif IC50): 536 nM; IC50 ([2]; person, Squamous cell H&N, Right lower lobe lung, read-out: Prolif IC50): 322 nM; IC50 ([2]; person, Squamous cell H&N, Right pleural biopsy, read-out: Prolif IC50): 441 nM; IC50 ([2]; person, Squamous cell tongue, Right axilliary node, read-out: Prolif IC50): 318 nM; IC50 ([2]; person, Tongue, Left neck mass, read-out: Prolif IC50): 377 nM; IC50 ([2]; span over all patient tumor cell samples of Table 3, read-out: inhibition of proliferation of patient tumor cells, IC50): 100 to 1800 nM; IC50 (SCC-9 [3]): 362 nM; GI50 (SCC-9 [3]; [25]): 129 nM; IC50 (Detroit562 [4]): 254 nM; GI50 (Detroit562 [4]; [25]): 169 nM; IC50 (CAL-33 [5]): 69.8 nM; GI50 (CAL-33 [5]; [25]): 42.7 nM; IC50 (SCC-15 [6]): 679 nM; GI50 (SCC-15 [6]; [25]): 56.8 nM; IC50 (RPMI-2650 [7]): 389 nM; GI50 (RPMI-2650 [7]; [25]): 219 nM; IC50 (CAL-27 [8]): 177 nM; GI50 (CAL-27 [8]; [25]): 144 nM; IC50 (SCC-25 [9]): 179 nM; GI50 (SCC-25 [9]; [25]): 127 nM; GI50 (HN [10]): 117 nM; IC50 (HN [10]): 178 nM; IC50 (A253 [11]): 378 nM; GI50 (A253 [11]; [25]): 303 nM; IC50 (BHY [12]): 210 nM; GI50 (BHY [12]; [25]): 39.5 nM; IC50 (FADU [13]): 1160 nM; GI50 (FADU [13]; [25]): 792 nM; Cal X (SCC-9 [14]; [26]): > 10 µM; CalX (SCC-9 [14]; [27]): >10 µM; Cal X (Detroit562 [15]; [26]): > 10 µM; CalX (Detroit562 [15]; [27]): >10 µM; Cal_X (CAL-33 [16]; Table 1, minimum concentration to double caspase 3/7 vs DMSO, in µM): 0.8764; CalX (CAL-33 [16]; [27]): 0.8764 µM; Cal X (SCC-15 [17]; [26]): > 10 µM; CalX (SCC-15 [17]; [27]): >10 µM; Cal X (RPMI-2650 [18]; [26]): > 10 µM; CalX (RPMI-2650 [18]; [27]): >10 µM; Cal X (CAL-27 [19]; [26]): > 10 µM; CalX (CAL-27 [19]; [27]): >10 µM; Cal X (SCC-25 [20]; [26]): > 10 µM; CalX (SCC-25 [20]; [27]): >10 µM; CalX (HN [21]): >10 µM; Cal X (A253 [22]; [26]): > 10 µM; CalX (A253 [22]; [27]): >10 µM; Cal X (BHY [23]; [26]): > 10 µM; CalX (BHY [23]; [27]): >10 µM; Cal X (FADU [24]; [26]): > 10 µM; CalX (FADU [24]; [27]): >10 µM
